For assay [1], the target named is T1, GLUT1 (Homo sapiens, UniProt P11166).
T1 construct: host or cells: CAL27 squamous cell carcinoma cells
T1 sequence (P11166 1-492): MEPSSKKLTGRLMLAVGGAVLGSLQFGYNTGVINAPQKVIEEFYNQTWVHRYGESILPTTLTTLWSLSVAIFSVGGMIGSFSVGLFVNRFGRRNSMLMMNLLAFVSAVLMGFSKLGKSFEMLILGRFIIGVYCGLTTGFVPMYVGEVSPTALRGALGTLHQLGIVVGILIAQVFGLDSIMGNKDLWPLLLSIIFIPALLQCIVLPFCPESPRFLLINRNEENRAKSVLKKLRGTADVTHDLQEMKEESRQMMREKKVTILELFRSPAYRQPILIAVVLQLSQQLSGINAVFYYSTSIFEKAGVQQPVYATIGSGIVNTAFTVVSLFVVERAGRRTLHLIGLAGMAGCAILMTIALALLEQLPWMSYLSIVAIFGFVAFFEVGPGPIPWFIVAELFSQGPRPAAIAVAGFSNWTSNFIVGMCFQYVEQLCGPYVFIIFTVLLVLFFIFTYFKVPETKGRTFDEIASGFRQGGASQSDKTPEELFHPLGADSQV
Set-up: method as in PMID 33390018. The note with it: CAL27 cells; cited from earlier work.

Assay [2] addresses T1, GLUT1. The assay is described as follows: Competition for GLUT1 binding with D-[14C]-glucose in CAL27 cells. In kind it is cell-based. The note with it: for IC50: 5 min at r.t., 1.8 μM D-[14C]-glucose, compounds 0.5–1400 μM, read-out: IC50, inhibition of D-[14C]-glucose (GLUT1 binding affinity). Here is the method:
(§1) CAL27 squamous cell carcinoma cells (ATCC CRL-2095) were purchased from the American Type Culture Collection (ATCC, Manassas, VA, USA). CAL27 cells were cultured in Dulbecco’s modified Eagle medium (DMEM; Gibco, ThermoFisher Scientific, Waltham, MA, USA) supplemented with L-glutamine (2.0 mM; ThermoFisher Scientific, Waltham, MA, USA), heat-inactivated fetal bovine serum (10%; Gibco, ThermoFisher Scientific, Waltham, MA, USA), and penicillin (50 U/mL)–streptomycin (50 μg/mL) solution (ThermoFisher Scientific, Waltham, MA, USA). CAL27 cells (passages 6–10) were seeded at the density of 5 × 10^5 cells/wells onto 24-well plates. The cells were used in affinity and uptake studies 2 days after seeding. The culture medium was removed, and the cells were washed with prewarmed Hank’s balanced salt solution (HBSS) without glucose (HBSS; 125 mM NaCl, 4.8 mM KCl, 1.2 mM MgSO4, 1.3 mM KH2PO4, 1.3 mM CaCl2, and 25 mM HEPES adjusted to pH 7.4). The cells were then incubated with HBSS at 37 °C for 10 min before the experiments.
The GLUT1-binding ability of the studied compounds was performed by using a known radiolabeled GLUT1 substrate, D-[^14C]-glucose (PerkinElmer, Waltham, MA, USA). Briefly, after preincubation with 500 μL of prewarmed glucose free HBSS, the cells were incubated at r.t. for 5 min with studied compounds (0.5–1400 μM) containing 1.8 μM (0.1 mCi/mL) of D-[^14C]-glucose in glucose free HBSS (250 μL) and D-[^14C]-glucose as blank. The reaction was stopped with ice-cold buffer, and the cells were washed two times with ice-cold buffer on the ice bath, lysed with 250 μL of 1% perchloric acid, and mixed with 1.0 mL of emulsifier safe cocktail (PerkinElmer, Waltham, MA, USA). The radioactivity was measured by a liquid scintillation counter (MicroBeta[2] counter, PerkinElmer, Waltham, MA, USA), (Figure S12). Half-maximal inhibitory concentration (IC50) was calculated by nonlinear regression analysis.

Assay [3] relates to CAL27 cell line. The assay is described as follows: Concentration-dependent cell uptake in CAL27 cells (LC-MS/MS). In kind it is cell-based, human. The note with it: 5–400 μM, 5 min; for Km: read-out: Km of cellular uptake. Here is the method:
as §1
The cells were first preincubated as described above. The cell uptake of these novel compounds was studied by adding 5–400 μM of studied compounds in 250 μL of prewarmed glucose free HBSS buffer on top of the cell layer and incubating the cells at r.t. for 5 min, based on the optimal performance of D-[^14C]-glucose under these conditions. After incubation, the reaction was stopped with ice-cold buffer; the cells were then washed and lysed as described above.
For the LC-MS/MS analysis, an aliquot was taken from the lysates and diluted with acidified acetonitrile (0.1% formic acid) 1:1, including internal standard (IS). FDG-Tz was used as an internal standard for FDR-Tz, and vice versa. After protein precipitation, the samples were centrifuged for 10 min with 10,000 × g at 4 °C. The supernatant was then collected and transferred to vials for LC-MS/MS analysis.
The samples were analyzed with LC-MS/MS coupled with an Agilent 1200 series Rapid Resolution LC System (Agilent Technologies, Waldbronn, Germany) and Agilent 6410 Triple Quadrupole with an electrospray ionization (ESI) (Agilent Technologies, Palo Alto, CA, USA). The samples were injected (5 μL) into the reversed-phase HPLC column (Zorbax Eclipse XDB-C18 Rapid Resolution 4.6 × 50 mm, […], Agilent Technologies, Palo Alto, CA, USA). The aqueous mobile phase was 0.1% formic acid in water (A), while the organic mobile phase was 0.1% formic acid in acetonitrile (B).
The column temperature was 40 °C and the flow rate of 0.5 mL/min was used, with the following gradient 0–4 min: 5% → 95% B, 4–6 min: 95% B, 6–6.1 min: 95% → 5% B, 6.1–8 min: 5% B. The following instrument optimizations were used: 300 °C sheath gas heat, 6.5 L/min drying gas flow, 25 psi nebulizer pressure, and 4000 V capillary voltage, respectively. Detection was performed by using multiple reaction monitoring (MRM) with the following transitions: m/z 425 → 261 for FDG-Tz and m/z 395 → 261 for FDR-Tz.
The lower limit of quantification (LLOQ) for both studied compounds was 5 nM. These LC-MS/MS methods were also selective, accurate (RSD < 15%) and precise (RSD < 15%) over the range 5.0–2500 nM, with good linearity (R^2 > 0.993).
Three replicates were analyzed from each concentration, and the statistical analyses were performed using GraphPad Prism v.5.03 software (GraphPad Software, San Diego, CA, USA).

Where two headings read alike, the source gives them in different places. Where only a bound is given, the exact number is not on record here.

In general, IC50 refers to the concentration needed to halve the response being measured. Regarding `OC[C@H]1OC(O)[C@H](O)[C@@H](O)[C@@H]1O` (stereo partly drawn) [D-glucose], the IC50 in assay [1] was greater than 1 mM.

A word on the Km: it is the substrate concentration at which the rate is half of its maximum. In the case of `O=C(CON=C[C@H](F)[C@@H](O)[C@H](O)C(O)CO)NCc1ccc(-c2nncnn2)cc1` (stereo partly drawn) [FDG-Tz, N-(4-(1,2,4,5-tetrazin-3-yl)benzyl)-2-((((2S,3S,4R)-2-fluoro-3,4,5,6-tetrahydroxyhexylidene)amino)oxy)acetamide], in assay [2], the IC50 was 324 µM. In assay [3], the “Concentration dependence of cellular uptake (shape of curve)” value was “concentration-dependent”, the “Vmax of cellular uptake” value was 63.2 ± 8.5 pmol/min/mg of protein and the Km is 27.6 ± 13.8 µM.

On to `O=C(CON=C[C@@H](O)[C@@H](O)[C@@H](O)CF)NCc1ccc(-c2nncnn2)cc1` [FDR-Tz, N-(4-(1,2,4,5-tetrazin-3-yl)benzyl)-2-((((2R,3R,4R)-5-fluoro-2,3,4-trihydroxypentylidene)amino)oxy)acetamide, reference compound], for which the IC50 in assay [2] is 22.4 µM. In assay [2] (ratio of IC50 values), the “Fold higher affinity for GLUT1 compared to FDG-Tz” value is roughly 15 times. Further, in assay [3], the “Vmax of cellular uptake” value is reported as 27.8 ± 3.7 pmol/min/mg of protein and the Km stood at 3.6 ± 7.8 µM.

Source of the values: article PMC10702189, “Tetrazine Glycoconjugate for Pretargeted Positron Emission Tomography Imaging of trans-Cyclooctene-Functionalized Molecular Spherical Nucleic Acids” (ACS Omega, 2023).
